Common to all, as to assay: NCI-60 SRB screening (one-dose and five-dose)
Format in all cases: cell-based, human

For one experiment, the system named is MDA-MB-435. The conditions noted are these: 48 h; for Growth Percent: MDA-MB-435, 10 μM. The gist of the method:
(§1)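 Spectrophotometric SRB end point; 48-h drug exposure; percent of untreated-control growth reported.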

For a further experiment, the system named is OVCAR-8. The conditions noted are these: 48 h; for Growth Percent: OVCAR-8, 10 μM. The gist of the method: (§2)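 Growth inhibition is scored with sulforhodamine B after 48 h of continuous compound exposure. An MG_MID averages each parameter over the whole cell panel, insensitive lines being counted at the top tested concentration.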
A further experiment concerns A549/ATCC. The conditions noted are these: 48 h; for Growth Percent: 10 μM. The gist of the method:
as §1

A further experiment concerns OVCAR-3. The conditions noted are these: 48 h; for Growth Percent: OVCAR-3, 10 μM. The gist of the method: as §1
In another experiment the test system is ACHN. The conditions noted are these: 48 h; for Growth Percent: 10 μM. The gist of the method:
as §1

A further experiment deals with NCI-H522. The conditions noted are these: 48 h; for Growth Percent: NCI-H522, 10 μM. A digest of the protocol: (§3)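 After a 48-h incubation with compound, cellular protein was stained with SRB and growth estimated by spectrophotometry relative to untreated controls.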
The subject of a further experiment is MALME-3M. The conditions noted are these: 48 h; for Growth Percent: 10 μM. The gist of the method:
as §1

Another experiment concerns U251. The conditions noted are these: 48 h; for Growth Percent: U251, 10 μM. The gist of the method:
as §3

The next experiment relates to HS 578T. The conditions noted are these: 48 h; for Growth Percent: 10 μM. The gist of the method: as §2
The subject of the next experiment is M14. The conditions noted are these: 48 h; for Growth Percent: M14, 10 μM. A digest of the protocol:
as §3

In another experiment the test system is SK-MEL-28. The conditions noted are these: 48 h; for Growth Percent: SK-MEL-28, 10 μM. The gist of the method: as §2
For the next experiment, the system named is HCT-15. The conditions noted are these: 48 h; for Growth Percent: HCT-15, 10 μM. The gist of the method: as §1
The test system of another experiment is SF-295. The conditions noted are these: 48 h; for Growth Percent: SF-295, 10 μM. The gist of the method:
as §1

For the next experiment, the system named is UACC-257. The conditions noted are these: 48 h; for Growth Percent: UACC-257, 10 μM. The gist of the method:
as §1

Another experiment has as its system RPMI-8226. The conditions noted are these: 48 h; for Growth Percent: RPMI-8226, 10 μM. The gist of the method: as §1
The subject of the next experiment is UO-31. The conditions noted are these: 48 h; for Growth Percent: UO-31, 10 μM. The gist of the method:
as §1

A further experiment deals with HCT-116. The conditions noted are these: 48 h; for Growth Percent: HCT-116, 10 μM. The gist of the method:
as §1

Another experiment relates to SNB-19. The conditions noted are these: 48 h; for Growth Percent: SNB-19, 10 μM. A digest of the protocol:
as §1

The test system of the next experiment is SNB-75. The conditions noted are these: 48 h; for Growth Percent: SNB-75, 10 μM. A digest of the protocol:
as §2

The next experiment has as its system T-47D. The conditions noted are these: 48 h; for Growth Percent: T-47D, 10 μM. A digest of the protocol: as §2
Where [1] appears, read: Homo sapiens, five dose 0.01–100 μM.

In the case of `COC(=O)[C@]12CC[C@@H](C(C)=O)[C@@H]1[C@H]1CC[C@@H]3[C@@]4(C)C/C(=C\c5cccnc5)C(=O)C(C)(C)[C@@H]4CC[C@@]3(C)[C@]1(C)CC2` [Compound 8, Methyl 3,20-dioxo-2-(3-pyridinylidene)-29-nor-lup-28-oate], the “Growth Percent” value with MDA-MB-435 is 72.63%; with OVCAR-8, 38.71%; in the experiment on A549/ATCC, 51.40%; with OVCAR-3 it was 49.04%; in the experiment with ACHN, 32.49%; in the experiment with NCI-H522, 47.50%. Further, the “Growth Percent” value is 29.95% in the experiment with MALME-3M; 56.61% in the experiment with U251; 74.77% with HS 578T; 56.69% with M14; 31.54% in the experiment with SK-MEL-28; 23.22% with HCT-15. Moreover, the “Growth Percent” value is given as 75.30% in the experiment with SF-295; 58.14% in the experiment with UACC-257; 2.88% with RPMI-8226; 56.64% in the experiment on UO-31; 3.92% in the experiment with HCT-116; 67.72% in the experiment with SNB-19. In addition, the “Growth Percent” value with SNB-75 is recorded as 110.35%; in the experiment with T-47D, 24.42%.
With `C[C@H]1[C@@H]2[C@H]3CC[C@@H]4[C@@]5(C)CC[C@H](O)C(C)(C)[C@@H]5CC[C@@]4(C)[C@]3(C)CC[C@]23CO[C@@]1(C)C(C(=O)/C=C/c1cccnc1)C3` (stereo partly drawn) [Compound 4], the “Growth Percent” value with MDA-MB-435 came to 34.50%; in the experiment with OVCAR-8, 35.05%; in the experiment with A549/ATCC, 57.76%; in the experiment on OVCAR-3, 46.73%; in the experiment with ACHN, 41.58%; in the experiment on NCI-H522, 37.96%. In addition, the “Growth Percent” value in the experiment with MALME-3M is 54.41%; in the experiment on U251 it was 58.63%; in the experiment with HS 578T, 81.98%; in the experiment with M14, 60.79%; with SK-MEL-28, 66.23%; in the experiment on HCT-15, 38.53%. The “Growth Percent” value in the experiment with SF-295 is 79.88%; in the experiment on UACC-257, 49.29%; with RPMI-8226, 9.55%; with UO-31, 58.69%; in the experiment on HCT-116, 14.40%; in the experiment with SNB-19, 71.61%. For the same compound, the “Growth Percent” value is given as 72.76% in the experiment on SNB-75 and 30.20% in the experiment with T-47D.
`COc1cccc2c1C(=O)c1c(O)c3c(c(O)c1C2=O)C[C@@](O)(C(=O)CO)C[C@@H]3O[C@H]1C[C@H](N)[C@H](O)[C@H](C)O1` [Doxorubicin, reference compound]: the 50% growth inhibitory concentration (GI50) with MDA-MB-435 (Homo sapiens, MDA-MB-435, MDA-B-435, five dose 0.01–100 μM) worked out at 250 nM; in the experiment on OVCAR-8 (Homo sapiens, OVCAR-8, five dose 0.01–100 μM) it was 100 nM; with A549/ATCC (setting [1]), 60 nM; in the experiment on OVCAR-3 (Homo sapiens, OVCAR-3, five dose 0.01–100 μM) it was 390 nM; with ACHN (setting [1]) it was 80 nM; in the experiment with NCI-H522 (Homo sapiens, NCI-H522, five dose 0.01–100 μM) it was 30 nM. Also, the concentration for 50% growth inhibition (GI50) in the experiment on MALME-3M (setting [1]) stood at 120 nM; in the experiment on U251 (Homo sapiens, U-251, U251, five dose 0.01–100 μM), 40 nM; in the experiment with HS 578T (setting [1]), 330 nM; with M14 (Homo sapiens, M14, five dose 0.01–100 μM), 180 nM; in the experiment on SK-MEL-28 (Homo sapiens, SK-MEL-28, five dose 0.01–100 μM), 210 nM; with HCT-15 (Homo sapiens, HCT-15, five dose 0.01–100 μM), 6460 nM. The GI50 in the experiment with SF-295 (Homo sapiens, SF-295, five dose 0.01–100 μM) was 100 nM; with UACC-257 (Homo sapiens, UACC-257, five dose 0.01–100 μM), 140 nM; with RPMI-8226 (Homo sapiens, RPMI-8226, five dose 0.01–100 μM) it was 80 nM; in the experiment with UO-31 (Homo sapiens, UO-31, five dose 0.01–100 μM), 490 nM; with HCT-116 (Homo sapiens, HCT-116, five dose 0.01–100 μM), 80 nM; in the experiment on SNB-19 (Homo sapiens, SNB-19, five dose 0.01–100 μM), 40 nM. In addition, the GI50 with SNB-75 (Homo sapiens, SNB-75, five dose 0.01–100 μM) was determined as 70 nM; in the experiment with T-47D (Homo sapiens, T47D, T -47D, five dose 0.01–100 μM) it was 60 nM.
For the compound `C[C@H]1[C@@H]2[C@H]3CC[C@@H]4[C@@]5(C)CC[C@H](O)C(C)(C)[C@@H]5CC[C@@]4(C)[C@]3(C)CC[C@]23CO[C@@]1(C)[C@@H](C(=O)/C=C/c1ccco1)C3` [Compound 5, 3β-Hydroxy-21-[3-(2E-furyl)-prop-2-en-1-one]-20β,28-epoxy-18α,19βH-ursane], the “Growth Percent” value with MDA-MB-435 amounted to 17.83%; with OVCAR-8 it was 99.33%; with A549/ATCC it was 103.89%; in the experiment on OVCAR-3, 102.55%; with ACHN, 44.33%; in the experiment with NCI-H522 it was 87.83%. Besides, the “Growth Percent” value with MALME-3M is reported as −11.31%; in the experiment on U251, 69.38%; in the experiment with HS 578T it was 95.83%; in the experiment with M14, 34.35%; in the experiment on SK-MEL-28, 36.66%; in the experiment on HCT-15 it was 105.61%. Further, the “Growth Percent” value with SF-295 is 109.70%; with UACC-257, −8.91%; in the experiment with RPMI-8226, 105.93%; in the experiment on UO-31, 77.02%; with HCT-116 it was 100.13%; in the experiment with SNB-19, 75.34%. The “Growth Percent” value in the experiment on SNB-75 was 78.39%; in the experiment on T-47D, 84.80%.
`CC(=O)[C@H]1C[C@]23CC[C@]4(C)[C@H](CC[C@@H]5[C@@]6(C)CCC(=O)C(C)(C)[C@@H]6CC[C@]54C)[C@H]2[C@H](C)[C@@]1(C)OC3` [Compound 2, 3-oxo-21β-acetyl-20β,28-epoxy-18α,19βH-ursane]: the “Growth Percent” value in the experiment on MDA-MB-435 was determined as 100.67%; in the experiment with OVCAR-8, 104.68%; in the experiment on A549/ATCC, 93.03%; in the experiment with OVCAR-3 it was 119.38%; in the experiment with ACHN, 99.80%; with MALME-3M it was 109.60%. Also, the “Growth Percent” value was found to be 107.36% in the experiment on U251; 103.91% with HS 578T; 107.08% in the experiment with M14; 109.33% with SK-MEL-28; 111.38% in the experiment with HCT-15; 99.35% with SF-295. The “Growth Percent” value is given as 103.91% with UACC-257; 102.14% with RPMI-8226; 66.99% in the experiment with UO-31; 100.51% in the experiment on HCT-116; 98.03% in the experiment on SNB-19; 72.80% in the experiment with SNB-75. Moreover, the “Growth Percent” value in the experiment with T-47D is on record as 106.29%.

(Values after paper PMC8509773, “3-Pyridinylidene Derivatives of Chemically Modified Lupane and Ursane Triterpenes as Promising Anticancer Agents by Targeting Apoptosis” (International Journal of Molecular Sciences, 2021).)
